Results reported in patent publication US20030125572A1, “Diester compounds of maleic acid (or fumaric acid)” (SENJU PHARMACEUTICAL CO., LTD., priority 1999, published 2003).
Where a name gives a salt, the structure may show the parent alone.

How the values were obtained:
[1] = DPPH radical scavenging capacity; details: for Radical scavenging capacity: DPPH, 20 min, absorbance at 517 nm
Protocol: The Compound is tested for the radical scavenging capacity against the stabilized radical of 1,1-diphenyl-2-picrylhydro radicals (DPPH).
The compound of Example 1 is dissolved in ethanol to the concentrations ranging from 10^−2 to 10^−5 M.
The test is carried out in accordance with the procedure of Blois, M. S., Nature: 181, 1199 […].
Added to 300 μl of a sample solution is 2.7 ml of a 0.011 mM ethanol solution of DPPH or a stabilized radical, and the solution is stirred and left on standing for 20 min., followed by measurement of absorbance at a wavelength of 517 nm. The radical scavenging rate of the sample solution is determined by the following equation:
Radical scavenging rate (%)=(absorbance of control−absorbance of the sample solution[…])×100

[2] = test system: mouse auricule inflammation; assay: Inflammation model of mouse auricule (PMA-induced edema); type: in vivo; details: for Inhibition rate (%): auricule edematization, against control (methanol), 0.5% solution topically, 24 hours
Protocol: The compound of Example 1 is dissolved in ethanol to the concentration of 0.5%.
6-Weeks aged male mice of ddy strain as procured from SLC CO. are subjected to the test.
In order to cause inflammation, a solution (100 μg/mL) of phorbol 12-myristate 13-acetate (PMA) in acetone is applied in 10-μl portions (20 μl in total per mouse) onto the inside and outside of right-hand auricule of each mouse in such a manner that the solution may extend over the whole auricule. 24 Hours after causing inflammation, the thickness of right-hand auricule of each mouse is measured with use of a dial thickness gauge, and the edematization rate is calculated based on the thickness before causing inflammation.
The test substance is applied in 10-μl portions (20 μl in total per mouse) onto the inside and outside of right-hand auricule of each mouse.

Cc1c(C)c2c(c(C)c1OC(=O)/C=C\C(=O)OC1=C(O)[C@@H]([C@@H](O)CO)OC1=O)CCC(C)(CCCC(C)CCCC(C)CCCC(C)C)O2 (stereo partly drawn) [Example 1, α-Tocopheryl L-Ascorbic Acid-2-O-Maleate (or Fumarate)]
IC50 ([1]; DPPH radical): ~560 µM | Radical scavenging capacity ([1]; final concn. 10 μM): 5.2% | Radical scavenging capacity ([1]; final concn. 100 μM): 10.8% | Radical scavenging capacity ([1]; final concn. 300 μM): 29.5% | Radical scavenging capacity ([1]; final concn. 1000 μM): 61.4% | Inhibition rate (%) ([2]; listed as Compound of Example 1): 83.8% | Inhibition rate (%) ([2]; listed as the Compound): 83.3% | Edematization rate (%) ([2]; male ddy mice, PMA on right auricule, 24 hours after causing inflammation, 0.5% solution applied topically, 20 μl per mouse, mean ± S.E. (n = 8)): 26.9 ± 6.2 %
